# Assay results taken from patent publication US7262212B2, “2,3-dihydro-6-nitroimidazo[2,1-b]oxazoles” (Otsuka Pharmaceutical Co., Ltd., priority 2002, dated 2007).
row,Structure (SMILES),melting point
1,C[C@]1(CN2CCC(N3CCN(C(=O)c4ccc(OC(F)(F)F)cc4)CC3)CC2)Cn2cc([N+](=O)[O-])nc2O1,137 to 138 °C
2,CC1(Cn2nc(-c3ccc(-c4ccccc4)cc3)oc2=O)Cn2cc([N+](=O)[O-])nc2O1 (centres unmarked),248 to 249 °C
3,CN(CCN(C)c1ccc(C(F)(F)F)cc1)C[C@@]1(C)Cn2cc([N+](=O)[O-])nc2O1,135.5 to 137.5 °C
4,CC1(Cn2c(=O)n(C3CCN(C(=O)OCc4ccccc4)CC3)c3ccccc32)Cn2cc([N+](=O)[O-])nc2O1 (centres unmarked),181.7 to 184.6 °C
5,CC(C)(C)OC(=O)N1CCN(c2ccc(OC[C@@]3(C)Cn4cc([N+](=O)[O-])nc4O3)cc2)CC1,230 to 232 °C
6,C[C@]1(CN2CCC3(CC2)OCCO3)Cn2cc([N+](=O)[O-])nc2O1,166.5 to 168.2 °C
7,CCOC(=O)C1CCN(c2ccc(OC[C@@]3(C)Cn4cc([N+](=O)[O-])nc4O3)cc2)CC1,208.2 to 211.5 °C
8,C[C@]1(CN2CCN(C3CCN(C(=O)c4ccc(Cl)cc4)CC3)CC2)Cn2cc([N+](=O)[O-])nc2O1,218 to 220 °C
9,CC1(CCc2nnnn2-c2ccc(Cl)cc2)Cn2cc([N+](=O)[O-])nc2O1 (centres unmarked),198 to 200 °C
10,CC(C)COC(=O)N1CCN(CC2(C)Cn3cc([N+](=O)[O-])nc3O2)CC1 (centres unmarked),176.5 to 177.3 °C
11,CN(C(=O)OC[C@@]1(C)Cn2cc([N+](=O)[O-])nc2O1)c1ccc(Cl)cc1,131 to 133 °C
12,CC1(Cn2nc(CCc3ccc(Cl)cc3)oc2=O)Cn2cc([N+](=O)[O-])nc2O1 (centres unmarked),139 to 140 °C
13,CN(CCCOc1ccc(OC(F)(F)F)cc1)C[C@@]1(C)Cn2cc([N+](=O)[O-])nc2O1,92 to 95 °C
14,CN(C(=O)OC[C@@]1(C)Cn2cc([N+](=O)[O-])nc2O1)c1ccc(OC(F)(F)F)cc1,144 to 145 °C
15,C[C@]1(COc2ccc(C3CCN(C(=O)OCc4ccc(OC(F)(F)F)cc4)CC3)cc2)Cn2cc([N+](=O)[O-])nc2O1,202.5 to 204 °C
16,CC1(COc2ccc(N3CCC(Oc4ccc(Cl)cc4)CC3)cc2)Cn2cc([N+](=O)[O-])nc2O1 (centres unmarked),151 to 152.3 °C
17,CC1(N2CCC(C(=O)c3ccc(OC(F)(F)F)cc3)CC2)Cn2cc([N+](=O)[O-])nc2O1 (centres unmarked),165 to 167 °C
18,CC1(COC(=O)N2CC=C(c3ccc(C(F)(F)F)cc3)CC2)Cn2cc([N+](=O)[O-])nc2O1 (centres unmarked),113 to 115 °C
19,C[C@]1(CN2CCC(N3CCC(Oc4ccc(OC(F)(F)F)cc4)CC3)CC2)Cn2cc([N+](=O)[O-])nc2O1,131 to 132 °C
20,O=C(NCC1Cn2cc([N+](=O)[O-])nc2O1)OCc1ccc(F)cc1 (centres unmarked),164.6 to 165.1 °C
21,C[C@]1(COc2ccc(C(=O)N3CCN(Cc4ccc(OC(F)(F)F)cc4)CC3)cc2)Cn2cc([N+](=O)[O-])nc2O1,155 to 156 °C
22,C[C@]1(CO)Cn2cc([N+](=O)[O-])nc2O1,162 to 163 °C
23,C[C@]1(COc2ccc(N3CCN(Cc4ccc(OC(F)(F)F)cc4)CC3)cc2)Cn2cc([N+](=O)[O-])nc2O1,213.5 to 217 °C
24,C[C@]1(CN2CCN(C(=O)OCC=Cc3ccc(C(F)(F)F)cc3)CC2)Cn2cc([N+](=O)[O-])nc2O1,132 to 133 °C
25,CC1(COC(=O)Nc2cccc(F)c2)Cn2cc([N+](=O)[O-])nc2O1 (centres unmarked),168 to 169 °C
26,C[C@]1(CN2CCN(C(=O)N3CC=C(c4ccc(C(F)(F)F)cc4)CC3)CC2)Cn2cc([N+](=O)[O-])nc2O1,168.4 to 171.7 °C

row,Structure (SMILES),melting point
1,C[C@]1(COC(=O)N2CCN(Cc3ccc(Cl)cc3)CC2)Cn2cc([N+](=O)[O-])nc2O1,161 to 163 °C
2,C[C@]1(COc2ccc(C(=O)N3CCN(C(=O)OCc4ccc(OC(F)(F)F)cc4)CC3)cc2)Cn2cc([N+](=O)[O-])nc2O1,168.5 to 172 °C
3,O=C(NCc1ccc(C(F)(F)F)cc1)N1CCC2(CC1)Cn1cc([N+](=O)[O-])nc1O2,215 to 217 °C
4,C[C@]1(COC(=O)N2CC=C(c3ccc(C(F)(F)F)cc3)CC2)Cn2cc([N+](=O)[O-])nc2O1,169 to 171 °C
5,CC(C)(C)OC(=O)N1CCN(C(=O)OC[C@@]2(C)Cn3cc([N+](=O)[O-])nc3O2)CC1,211 to 212 °C
6,O=C(OCc1ccc(C(F)(F)F)cc1)N1CCN(CC2Cn3cc([N+](=O)[O-])nc3O2)CC1 (centres unmarked),120 to 122 °C
7,CC(C)(C)OC(=O)c1ccc(NC(=O)N2CCC3(CC2)Cn2cc([N+](=O)[O-])nc2O3)cc1,> 300 °C
8,CC1(CCN2CCN(C(C)(C)C)C(=O)C2)Cn2cc([N+](=O)[O-])nc2O1 (centres unmarked),153 to 154 °C
9,C[C@]1(COC(=O)N2CCN(c3ccc(OC(F)(F)F)cc3)CC2)Cn2cc([N+](=O)[O-])nc2O1,168 to 169 °C
10,O=[N+]([O-])c1cn2c(n1)O[C@@H](CN1CCN(Cc3ccc(C(F)(F)F)cc3)CC1)C2,149 to 150 °C
11,CN(CCOc1ccc(OC(F)(F)F)cc1)CC1(C)Cn2cc([N+](=O)[O-])nc2O1 (centres unmarked),86.4 to 89.2 °C
12,CN(CCN1CCN(Cc2ccc(C(F)(F)F)cc2)CC1)C[C@@]1(C)Cn2cc([N+](=O)[O-])nc2O1,102 to 104.5 °C
13,CC1(CN2CCN(C(=O)NCc3ccc(C(F)(F)F)cc3)CC2)Cn2cc([N+](=O)[O-])nc2O1 (centres unmarked),201 to 202.5 °C
14,CNC(=O)OC[C@@]1(C)Cn2cc([N+](=O)[O-])nc2O1,175 to 178 °C
15,CC(C)(C)OC(=O)CNC(=O)OCC1(C)Cn2cc([N+](=O)[O-])nc2O1 (centres unmarked),104 to 106 °C
16,CC(C)(C)OC(=O)N(CCc1ccc(C(F)(F)F)cc1)C1CCN(C[C@@]2(C)Cn3cc([N+](=O)[O-])nc3O2)CC1,206.8 to 208.6 °C
17,C[C@]1(COc2ccc(N3CCN(C(=O)OCc4cc5cc(Cl)ccc5o4)CC3)cc2)Cn2cc([N+](=O)[O-])nc2O1,195 to 197 °C
18,CCOC(=O)c1ccc2c(c1)n(CC1(C)Cn3cc([N+](=O)[O-])nc3O1)c(=O)n2C (centres unmarked),265.8 to 266.7 °C
19,CC1(Cn2c(=O)oc3ccc(Cl)cc32)Cn2cc([N+](=O)[O-])nc2O1 (centres unmarked),207.6 to 207.9 °C
20,C[C@]1(COc2ccc(C3=CCN(Cc4ccc(OC(F)(F)F)cc4)CC3)cc2)Cn2cc([N+](=O)[O-])nc2O1,168 to 174 °C
21,CC(C)(C)OC(=O)N1CCN(CC(=O)N2CCC3(CC2)Cn2cc([N+](=O)[O-])nc2O3)CC1,211 to 213 °C
22,O=[N+]([O-])c1cn2c(n1)OC1(CCN(c3ccc(OC(F)(F)F)cc3)CC1)C2,235.9 to 236.8 °C (dec.)
23,CN(Cc1cccc(Cl)c1)C[C@@]1(C)Cn2cc([N+](=O)[O-])nc2O1,177.5 to 178.5 °C
24,CC1(COc2ccc(N3CCN(Cc4ccc(C(F)(F)F)cc4)CC3)cc2)Cn2cc([N+](=O)[O-])nc2O1 (centres unmarked),171.8 to 173.1 °C
25,CC1(CN2CCN(C(=O)COc3ccc(Cl)c(Cl)c3)CC2)Cn2cc([N+](=O)[O-])nc2O1 (centres unmarked),209 to 211 °C
26,CC1(CCSc2nc3ccccc3o2)Cn2cc([N+](=O)[O-])nc2O1 (centres unmarked),174 to 175 °C

# Further lines, results first:
row,melting point,Structure (SMILES)
1,229 to 232 °C (dec.),O=C(Nc1ccccc1)N1CCC2(CC1)Cn1cc([N+](=O)[O-])nc1O2
2,109 to 110.5 °C,CC1(CN2CCC(Cc3ccc(Cl)cc3)CC2)Cn2cc([N+](=O)[O-])nc2O1 (centres unmarked)
3,123 to 126 °C,CC1(CN2CCN(CCCn3c(=O)oc4ccccc43)CC2)Cn2cc([N+](=O)[O-])nc2O1 (centres unmarked)
4,166.8 to 169.1 °C,CC1(CN2CCN(C(=O)CCc3ccccc3)CC2)Cn2cc([N+](=O)[O-])nc2O1 (centres unmarked)
5,153 to 155.3 °C,C[C@]1(CN2CCc3ccccc3C2)Cn2cc([N+](=O)[O-])nc2O1
6,91.3 to 92.7 °C,C[C@]1(CN2CCC(OCC=Cc3ccccc3)CC2)Cn2cc([N+](=O)[O-])nc2O1
7,212 to 214 °C (dec.),CC1(CN2CCN(C(=O)Nc3ccc(Cl)c(Cl)c3)CC2)Cn2cc([N+](=O)[O-])nc2O1 (centres unmarked)
8,201.2 to 205.4 °C,C[C@]1(CN2CCN(c3nc(-c4ccccc4)cc(-c4ccccc4)n3)CC2)Cn2cc([N+](=O)[O-])nc2O1
9,204 to 207 °C,CN(C)c1ccc(C(=O)N2CCN(CC3(C)Cn4cc([N+](=O)[O-])nc4O3)CC2)cc1 (centres unmarked)
10,167 to 168 °C,COc1ccc(NC(=O)N2CCN(CC3(C)Cn4cc([N+](=O)[O-])nc4O3)CC2)cc1 (centres unmarked)
11,81 to 85 °C,CC1(CN2CCN(C(=O)Oc3ccccc3)CC2)Cn2cc([N+](=O)[O-])nc2O1 (centres unmarked)
12,192 to 193 °C,C[C@]1(CN2CCN(S(=O)(=O)CCc3ccc(Cl)cc3)CC2)Cn2cc([N+](=O)[O-])nc2O1
13,158.8 to 163.9 °C,C[C@]1(CN2CCC(c3ccccc3)CC2)Cn2cc([N+](=O)[O-])nc2O1
14,110 to 112 °C,C[C@]1(CN2CCN(Cc3ccc(C(F)(F)F)cc3)CC2)Cn2cc([N+](=O)[O-])nc2O1
15,135 to 137 °C,COc1ccc(C(=O)N2CCN(CC3(C)Cn4cc([N+](=O)[O-])nc4O3)CC2)cc1 (centres unmarked)
16,223 to 227.8 °C,CC1(CN2CCN(c3ccc(-c4ccccc4)cc3)CC2)Cn2cc([N+](=O)[O-])nc2O1 (centres unmarked)
17,202 to 204 °C,CC1(CN2CCN(S(=O)(=O)c3ccc(Cl)cc3)CC2)Cn2cc([N+](=O)[O-])nc2O1 (centres unmarked)
18,207 to 210 °C (dec.),Cc1ccc(NC(=O)N2CCN(C[C@@]3(C)Cn4cc([N+](=O)[O-])nc4O3)CC2)cc1
19,183 to 184 °C,C[C@]1(CN2CCN(C(=O)c3ccc(C(F)(F)F)cc3)CC2)Cn2cc([N+](=O)[O-])nc2O1
20,185.5 to 187.5 °C,COc1ccc(NC(=O)N2CCN(C[C@@]3(C)Cn4cc([N+](=O)[O-])nc4O3)CC2)cc1
21,107.5 to 109 °C,C[C@]1(CN2CCC(Nc3ccc(OC(F)(F)F)cc3)CC2)Cn2cc([N+](=O)[O-])nc2O1
22,93 to 95 °C,C[C@@]1(CN2CCN(Cc3ccc(C(F)(F)F)cc3)CC2)Cn2cc([N+](=O)[O-])nc2O1
23,204 to 206 °C,C[C@]1(CN2CCN(S(=O)(=O)Cc3ccc(Cl)cc3)CC2)Cn2cc([N+](=O)[O-])nc2O1
24,164.6 to 166.5 °C,CC(=NN1CCN(C[C@@]2(C)Cn3cc([N+](=O)[O-])nc3O2)CC1)c1ccc(Cl)cc1
25,166.6 to 169.6 °C,CCCCCC(C=NN1CCN(CC2(C)Cn3cc([N+](=O)[O-])nc3O2)CC1)=Cc1ccccc1 (centres unmarked)
